Where two headings read alike, the source gives them in different places. Marks after values point to notes of the source that are not given here.
Test system: MDD patients carrying the indicated conditions
Protocol: Folate levels are classified as either low (<=2.5 ng/ml) or normal; and homocysteine levels as either normal or elevated (>=[…]). The presence or absence of at least one […] allele for the MTHFR gene are entered as a dichotomous variable (present or absent). […] Using folate as an example predicator, the presence or absence of a low serum-folate level along with treatment assignment can be entered in a 2×2, factorial ANOVA, using depression improvement scores (baseline minus endpoint HAM-D-17 scores) as the dependant variable. […] Similar analyses (i.e. separate 2×2 ANOVA's) can be performed substituting the presence of low folate levels for the presence of other predictors as described herein. Similarly, the effect of other predictors can be indicated by the interaction term representing the potential modulating influence of those variables.
Particularly, specific genetic and biomarkers that were assessed include the following: • (a) BMI calculation of at least about 30 kg/m^2; • (b) an expression ratio of SAM/SAH smaller than 2.8 (e.g., 2.71) as measured in a plasma sample; • (c) a level of 4-HNE no less than 3.28 μg/mL (as measured in a plasma sample); • (d) presence of rare variants CT or TT at position 677 of SEQ ID NO: 1 corresponding to a portion of a genomic nucleic acid sequence of methylenetetrahydrofolate reductase (MTHFR) (abbreviated as “MTHFR 677” below); • (e) presence of rare variants AG or GG at position 2756 of SEQ ID NO: 2 corresponding to a portion of genomic nucleic acid sequence of methionine synthase (MTR) (abbreviated as “MTR 2756” below); and • (f) presence of rare variants AG or GG at position 66 of SEQ ID NO: 3 corresponding to a portion of genomic nucleic acid sequence of methionine synthase reductase (MTRR) (abbreviated as “MTRR 66” below).
The efficacy effect is determined by measuring the mean change in the HAMD-17 score and HAMD-28 score by the end of Phase I and Phase II, as compared to the baseline.

[1] = Pooled phases, interaction of BMI with the treatment, with SSRI
[2] = Pooled phases, interaction of HNE-his with the treatment, with SSRI
[3] = Pooled phases, interaction of SAM/SAH with the treatment, with SSRI

CN1c2c(nc(N)[nH]c2=O)NC[C@@H]1CNc1ccc(C(=O)N[C@@H](CCC(=O)O)C(=O)O)cc1 [6(S)-5-MTHF, 6(S)-5-methyltetrahydrofolate]
Effect, change in HAMD-17 score (Pooled phases, MTHFR 677 CC and MTR 2756 AA (29,13), with SSRI): 0.722
Effect, change in HAMD-28 score (Pooled phases, MTHFR 677 CC and MTR 2756 AA, with SSRI): 0.711
Effect, change in HAMD-17 score (Pooled phases, MTHFR 677 CT or TT and BMI >= 30 kg/m^2 (13,6), with SSRI): −8.090
Effect, change in HAMD-28 score (Pooled phases, MTHFR 677 CT or TT and BMI >= 30 kg/m^2, with SSRI): −9.884
Effect, change in HAMD-17 score (Pooled phases, MTHFR 677 CT or TT and HNE-His >= median (11,6), with SSRI): −9.446
Effect, change in HAMD-28 score (Pooled phases, MTHFR 677 CT or TT and HNE-His >= median, with SSRI): −9.865
Effect, change in HAMD-17 score (Pooled phases, MTHFR 677 CT or TT and MTR 2756 AG or GG (8,4), with SSRI): −18.71
Effect, change in HAMD-28 score (Pooled phases, MTHFR 677 CT or TT and MTR 2756 AG or GG, with SSRI): −23.29
Effect, change in HAMD-17 score (Pooled phases, MTR 2756 AA (45,21), with SSRI): −0.590
Effect, change in HAMD-17 score (Pooled phases, MTR 2756 AA and BMI < 30 kg/m^2 (17,7), with SSRI): 3.196
Effect, change in HAMD-28 score (Pooled phases, MTR 2756 AA and BMI < 30 kg/m^2, with SSRI): 3.352
Effect, change in HAMD-17 score (Pooled phases, MTR 2756 AA and HNE-His < median (26,13), with SSRI): 1.319
Effect, change in HAMD-28 score (Pooled phases, MTR 2756 AA and HNE-His < median, with SSRI): 2.085
Effect, change in HAMD-17 score (Pooled phases, MTR 2756 AA and MTRR 66 AA (11,5), with SSRI): −1.373
Effect, change in HAMD-17 score (Pooled phases, MTR 2756 AA and MTRR 66 AA and HNE-His < median (6,4), with SSRI): 0.466
Effect, change in HAMD-28 score (Pooled phases, MTR 2756 AA and MTRR 66 AA and HNE-His < median = 3.28 (plasma sample), with SSRI): −2.221
Effect, change in HAMD-17 score (Pooled phases, MTR 2756 AA and MTRR 66 AA and SAM/SAH >= median (6,3), with SSRI): −3.98*
Effect, change in HAMD-28 score (Pooled phases, MTR 2756 AA and MTRR 66 AA and SAM/SAH >= median, with SSRI): −3.74*
Effect, change in HAMD-28 score (Pooled phases, MTR 2756 AA and MTRR 66 AA, with SSRI): −3.032
Effect, change in HAMD-17 score (Pooled phases, MTR 2756 AA and SAM/SAH >= median (24,12), with SSRI): 0.054
Effect, change in HAMD-28 score (Pooled phases, MTR 2756 AA and SAM/SAH >= median, with SSRI): −0.071
Effect, change in HAMD-28 score (Pooled phases, MTR 2756 AA, with SSRI): −0.047
Effect, change in HAMD-17 score (Pooled phases, MTR 2756 AG or GG and BMI >= 30 kg/m^2 (10,5), with SSRI): −11.714
Effect, change in HAMD-28 score (Pooled phases, MTR 2756 AG or GG and BMI >= 30 kg/m^2, with SSRI): −14.433
Effect, change in HAMD-17 score (Pooled phases, MTR 2756 AG or GG and HNE-His >= median (13,7), with SSRI): −8.072
Effect, change in HAMD-28 score (Pooled phases, MTR 2756 AG or GG and HNE-His >= median = 3.28 (plasma sample), with SSRI): −9.508
Effect, change in HAMD-17 score (Pooled phases, MTR 2756 AG or GG and MTRR 66 AG or GG (15,7), with SSRI): −6.976
Effect, change in HAMD-17 score (Pooled phases, MTR 2756 AG or GG and MTRR 66 AG or GG and BMI >= 30 kg/m^2 (8,4), with SSRI): −10.972
Effect, change in HAMD-28 score (Pooled phases, MTR 2756 AG or GG and MTRR 66 AG or GG and BMI >= 30 kg/m^2, with SSRI): −15.347
Effect, change in HAMD-17 score (Pooled phases, MTR 2756 AG or GG and MTRR 66 AG or GG and HNE-His >= median (10,4), with SSRI): −7.942
Effect, change in HAMD-28 score (Pooled phases, MTR 2756 AG or GG and MTRR 66 AG or GG and HNE-His >= median, with SSRI): −10.241
Effect, change in HAMD-28 score (Pooled phases, MTR 2756 AG or GG and MTRR 66 AG or GG, with SSRI): −9.348
Effect, change in HAMD-17 score (Pooled phases, MTR 2756 AG or GG and SAM/SAH < median (10,4), with SSRI): −5.583
Effect, change in HAMD-28 score (Pooled phases, MTR 2756 AG or GG and SAM/SAH < median = 2.71 (plasma sample), with SSRI): −11.683
Effect, change in HAMD-17 score (Pooled phases, MTR 2756 AG/GG (20,11), with SSRI): −5.677
Effect, change in HAMD-28 score (Pooled phases, MTR 2756 AG/GG, with SSRI): −8.243
Effect, change in HAMD-17 score (Pooled phases, MTRR 66 AA and HNE-His < median (8,5), with SSRI): 2.575
Effect, change in HAMD-28 score (Pooled phases, MTRR 66 AA and HNE-His < median = 3.28 (plasma sample), with SSRI): −2.626
Effect, change in HAMD-17 score (Pooled phases, MTRR 66 AA and SAM/SAH >= median (9,6), with SSRI): −2.978
Effect, change in HAMD-28 score (Pooled phases, MTRR 66 AA and SAM/SAH >= median, with SSRI): −1.221
Effect, change in HAMD-17 score (Pooled phases, MTRR 66 AG or GG and HNE-His >= median (24,11), with SSRI): −4.850
Effect, change in HAMD-17 score (Pooled phases, MTRR 66 AG or GG and SAM/SAH < median (24,10), with SSRI): −5.879
Effect, change in HAMD-28 score (Pooled phases, MTRR 66 AG or GG and SAM/SAH < median = 2.71 (plasma sample), with SSRI): −6.579
Effect, change in HAMD-17 score (Pooled phases, SAM/SAH < median and HNE-His >= median (19,7), with SSRI): −9.898
Effect, change in HAMD-28 score (Pooled phases, SAM/SAH < median and HNE-His >= median, with SSRI): −9.500
Effect, change in HAMD-17 score (Pooled phases, SAM/SAH >= median and HNE-His < median (18,8), with SSRI): 2.107
Effect, change in HAMD-28 score (Pooled phases, SAM/SAH >= median and HNE-His < median, with SSRI): 2.413
Effect, change in HAMD-17 score: BMI*treat [1]: −0.233
Effect, change in HAMD-28 score: BMI*treat [1]: −0.270
Effect, change in HAMD-17 score: HNE-his*treat [2]: 0.626
Effect, change in HAMD-28 score: HNE-his*treat [2]: 0.685
Effect, change in HAMD-17 score: SAM/SAH*treat [3]: 0.882
Effect, change in HAMD-28 score: SAM/SAH*treat (last line) [3]: 1.112
Effect, change in HAMD-17 score: baseHAMD-17*treat (Pooled phases, interaction of base HAMD-17 with the treatment, with SSRI): −0.025
Effect, change in HAMD-28 score: SAM/SAH*treat (first line under HAMD28) (Pooled phases, interaction with the treatment, with SSRI): 0.882
improvement in HDRS-28 or CGI-S, patients with at least one T allele at MTHFR 677 vs no T allele (in words) (in combination with an SSRI, FIGS. 4A-4B): greater degree of improvement
improvement in HAMD-28 or CGI-S, obese (BMI at least 30 kg/m^2) vs non-obese patients (in words) (in combination with an SSRI, FIGS. 5A-5B): greater degree of improvement

— US9540691B2, “Assays and methods for selecting a treatment regimen for a subject with depression” (THE GENERAL HOSPITAL CORPORATION, priority 2011, dated 2017)
